In brackets after ≈: the same amount, converted by molar mass. Where a name gives a salt, the structure may show the parent alone.

Broadly, the IC50 is the midpoint of a concentration-inhibition curve. For orientation: solubility means the dissolved amount per volume that the medium holds.

In series [1] the target is T1, c-Met (Homo sapiens, UniProt P08581). The series is described as follows: Fluorescence polarization assay on the kinase activity of c-Met. The class given is biochemical. Also on record: The c-Met kinase domain consists amino acid 1046-1390 of the c-Met protein; made in house; host or cells: Sf9 insect cells with baculovirus. The note with it: 6H-TEV-cMet, poly Gly4Tyr substrate, 10 μM ATP; read-out: c-Met FP Enz IC50. The text has this:
A fluorescence polarization assay (FP) was developed for screening of compounds that decreases the kinase activity of c-Met.
A protein (6H-TEV-cMet) comprising c-Met kinase domain was cloned, recombinantly expressed and purified following a procedure similar to that as described in Example A. The protein comprises a His tag consisting of six histidines at its N-terminal, a TEV protease cleavage site, and the c-Met kinase domain. The c-Met kinase domain consists amino acid 1046-1390 of the c-Met protein as listed in GenBank protein accession number P08581.
For the c-Met kinase assay, the 6H-TEV-cMet was used as the enzyme, and a poly Gly4Tyr peptide (Sigma, P-0275) was used as the substrate. The kinase reaction was performed in a volume of 10 μl in HE microplates (LJL Biosystems). Assay conditions were as follows: 100 mM HEPES pH 7.5, 0.01% Tween-20, 1 mM DTT, 5 mM MgCl2, 10 μM ATP, 10 μg/ml poly Gly4Tyr. The kinase reaction was initiated upon addition of 10 nM 6H-TEV-cMet. After a 12 minute incubation at room temperature the reaction was terminated with […] 50 mM EDTA.
Phosphorylation of the peptide substrate was detected with PanVera Tyrosine Kinase Assay Kit, Green reagents (P2837). Five minutes after the addition of EDTA, 10 μl of antibody/tracer mix (Pan Vera reagents, 1:1:3 dilution of antibody: Tracer: FP dilution buffer, Cat. # P2837) was added to each well. Plates were allowed to incubate for 30 minutes at room temperature and fluorescence polarization was measured with an LJL Analyst instrument (Molecular Devices; Sunnyvale, Calif.) with excitation=485 nm filter and emission=530 nm filter. IC50 values were calculated from triplicate sets of data using Graphpad Prism software (Graphpad Software; San Diego, Calif.).
(In fluorescence polarisation assays a small probe gives low polarisation when free and higher when bound to something large.)
Target sequence in this assay (P08581 1046-1390): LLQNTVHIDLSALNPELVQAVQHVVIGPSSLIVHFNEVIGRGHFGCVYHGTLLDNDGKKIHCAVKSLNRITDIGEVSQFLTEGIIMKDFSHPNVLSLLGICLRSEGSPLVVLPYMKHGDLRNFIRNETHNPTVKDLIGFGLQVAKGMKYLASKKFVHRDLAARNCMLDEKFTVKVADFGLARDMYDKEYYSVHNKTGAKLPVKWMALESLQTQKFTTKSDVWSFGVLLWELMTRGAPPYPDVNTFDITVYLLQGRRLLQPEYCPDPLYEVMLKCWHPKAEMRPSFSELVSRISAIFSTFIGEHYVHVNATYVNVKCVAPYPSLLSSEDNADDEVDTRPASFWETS

Series [2] addresses T1, c-Met. Nature of the series: Delfia autophosphorylation kinase assay on the c-Met. The format is biochemical. Also on record: The purified His6 tagged cytoplasmic domain of c-Met was diluted to a concentration of 500 ng/ml; made in house; host or cells: Sf9 insect cells with recombinant baculovirus; Large-scale expression and purification were done by the contract lab Pan Vera. The note with it: His6 tagged cytoplasmic domain of c-Met, 1 μM ATP; read-out: c-Met Delfia Autophos IC50. How it is done:
This example describes the cloning, expression, and purification of the cytoplasmic domain of c-Met which has the c-Met receptor tyrosine kinase activity.
A DELFIA time resolved fluorescence assay was developed for screening of compounds that decreases the autophosphorylation thus the kinase activity of c-Met.
The DELFIA assay is non-radioactive. The autophophorylation of the c-Met is measured by an anti-phosphotyrosine antibody coupled to an Europium tag.
A major advantage of this format is that it allowed for the development of an autophosphorylation assay using Ni-chelate plates which bind the hexa-his tag on the recombinant Met kinase. Autophosphorylation assay allows to use a known substrate, Met kinase itself, for the phosphorylation. The DELFIA Met autophosphorylation assay is very sensitive with a signal to noise ratio in excess of 50:1.
The assay procedure for screening is as follows. The purified His6 tagged cytoplasmic domain of c-Met was diluted to a concentration of 500 ng/ml in enzyme dilution buffer (50 mM Tris-HCl, pH8.0, 0.1% BSA) and dispensed to assay plates at a volume of 50 μl per well. Black opaque HisGrab Nickel coated 96 well plates (Pierce, Rockford, Ill.) were selected to run the assay. Next, 2.5 μl of compound in 40% DMSO was added to test wells, 2.5 μl of 40% DMSO only was added to the negative control wells. The autophosphorylation reaction was initiated upon the addition of 50 μl of reaction buffer, 50 mM Tris-HCl, pH 8.0, 10 mM MgCl2, 0.1 mM Na3VO4, 1 mM DTT, 1 μM ATP. Plates were incubated at room temperature for 1 hour followed by 2 washes with 200 μl/well of PBS. Europium conjugated anti-phosphotyrosine antibody, Eu-PY20 from Perkin Elmer was diluted to 50 ng/ml in Delfia AB buffer (Perkin Elmer, Boston, Mass.), added to the 96 well assay plates at a volume of […], and incubated at room temperature for 2 hours. Assay plates were then washed 4 times each with 200 μl/well of Delfia wash buffer (Perkin Elmer). After the final wash 150 μl of Delfia Enhancement solution (Perkin Elmer) was added to each well of the assay plate and incubated at room temperature for 1 hour. Plates were read on an LJL Analyst instrument (Molecular Devices; Sunnyvale, Calif.) with filter settings of 360 excitation, 620 emission, and 410 dichroic. IC50 values were calculated using Graphpad Prism software (Graphpad Software; San Diego, Calif.).
Target sequence in this assay (P08581 956-1390 limits assumed): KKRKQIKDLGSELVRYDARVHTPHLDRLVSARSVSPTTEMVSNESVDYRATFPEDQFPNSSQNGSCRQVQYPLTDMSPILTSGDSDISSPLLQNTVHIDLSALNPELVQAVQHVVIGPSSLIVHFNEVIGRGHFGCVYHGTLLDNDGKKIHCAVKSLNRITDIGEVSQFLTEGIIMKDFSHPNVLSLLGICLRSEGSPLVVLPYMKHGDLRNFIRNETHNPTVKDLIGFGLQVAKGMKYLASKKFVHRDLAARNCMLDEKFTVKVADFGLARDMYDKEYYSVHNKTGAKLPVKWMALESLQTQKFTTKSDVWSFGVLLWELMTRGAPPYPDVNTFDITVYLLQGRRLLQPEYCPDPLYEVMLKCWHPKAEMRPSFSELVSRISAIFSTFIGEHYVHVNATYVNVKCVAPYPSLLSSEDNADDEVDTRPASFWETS

Series [3] is described as follows: Aqueous solubility assay. The note with it: water with 0.4% DMSO, kinetic from dmso stock.
Experimental: Water, PBS and aqueous HCl at pH2 having a final DMSO content of 0.4%, with the final DMSO concentration reaching 40 μM. Samples were placed in the incubator and shaken for 15 minutes.

With “4-Bromo-3-[(2-2,3-dihydro-benzofuran-5-yl-acetyl)-hydrazono]-2-oxo-2,3-dihydro-1H-indole-6-carboxylic acid (3-morpholin-4-yl-propyl)-amide [Example 7]”, the values for the 50% inhibitory concentration (IC50) in series [1] and in series [2] were 1 nM and 0.7 nM, respectively.
For `O=C(Cc1ccc2c(c1)CCO2)N/N=C1/C(=O)Nc2cc(C(=O)NCCCN3CCC[C@H]3CO)cc(Br)c21` [Example 1, (S)-4-Bromo-3-[(2-2,3-dihydro-benzofuran-5-yl-acetyl)-hydrazono]-2-oxo-2,3-dihydro-1H-indole-6-carboxylic acid [3-(2-hydroxymethyl-pyrrolidin-1-yl)-propyl]-amide], the IC50 in series [2] is 6 nM.
Regarding `CN1CCN(C(=O)c2cc(Br)c3c(c2)NC(=O)/C3=N\NC(=O)Cc2ccc3c(c2)CCO3)CC1` [Example 2, (2,3-Dihydro-benzofuran-5-yl)-aceticacid[4-bromo-6-(4-methyl-piperazine-1-carbonyl)-2-oxo-1,2-dihydro-indol-3-ylidene]-hydrazide], the solubility at 15 min in series [3] turned out to be 43.9 µM (≈ 23.1 µg/mL). Also, the IC50 in series [2] was 10 nM.
`O=C(Cc1ccc2c(c1)CCO2)N/N=C1\C(=O)Nc2cc(C(=O)NCCN3CCOCC3)ccc21` [Example 3, 3-[(2-2,3-Dihydro-benzofuran-5-yl-acetyl)-hydrazono]-2-oxo-2,3-dihydro-1H-indole-6-carboxylic acid(2-morpholin-4-yl-ethyl)-amide] registered a solubility at 15 min in series [3] of 38.1 µM (≈ 18.2 µg/mL). Also, the IC50 in series [1] and in series [2] was 24 nM in each case.
The molecule `CN1CCN(CCCNC(=O)c2ccc3c(c2)NC(=O)/C3=N\NC(=O)Cc2ccc3c(c2)CCO3)CC1` [Example 4, 3-[(2-2,3-Dihydro-benzofuran-5-yl-acetyl)-hydrazono]-2-oxo-2,3-dihydro-1H-indole-6-carboxylic acid [3-(4-methyl-piperazin-1-yl)-propyl]-amide] had a solubility at 15 min in series [3] of 37.9 µM (≈ 19.1 µg/mL). The IC50 in series [2] was determined as 28 nM.
`CN1CCN(CCCNC(=O)c2cc(Br)c3c(c2)NC(=O)/C3=N\NC(=O)Cc2ccc3c(c2)CCO3)CC1` [Example 5, 4-Bromo-3-[(2-2,3-dihydro-benzofuran-5-yl-acetyl)-hydrazono]-2-oxo-2,3-dihydro-1H-indole-6-carboxylic acid [3-(4-methyl-piperazin-1-yl)-propyl]-amide] displayed a solubility at 15 min in series [3] of 38.8 µM (≈ 22.6 µg/mL). For the same molecule, the half-maximal inhibitory concentration (IC50) in series [1] is 13 nM; in series [2], 1 nM.
On to `CN(C)CCCNC(=O)c1cc(Br)c2c(c1)NC(=O)/C2=N\NC(=O)Cc1ccc2c(c1)CCO2` [Example 9, 4-Bromo-3-[(2-2,3-dihydro-benzofuran-5-yl-acetyl)-hydrazono]-2-oxo-2,3-dihydro-1H-indole-6-carboxylic acid (3-dimethylamino-propyl)-amide], for which the IC50 in series [2] stood at 5 nM.
The same measure, in the same setting: in the case of `O=C(Cc1ccc2c(c1)CCO2)N/N=C1\C(=O)Nc2cc(C(=O)NCCCN3CC[C@@H](O)C3)cc(Br)c21` [Example 10, (R)-4-Bromo-3-[(2-2,3-dihydro-benzofuran-5-yl-acetyl)-hydrazono]-2-oxo-2,3-dihydro-1H-indole-6-carboxylic acid [3-(3-hydroxy-pyrrolidin-1-yl)-propyl]-amide] it was 0.7 nM.
For `O=C(Cc1ccc2c(c1)CCO2)N/N=C1\C(=O)Nc2cc(C(=O)NCCCN3CCC[C@@H]3CO)cc(Br)c21` [Example 11, (R)-4-Bromo-3-[(2-2,3-dihydro-benzofuran-5-yl-acetyl)-hydrazono]-2-oxo-2,3-dihydro-1H-indole-6-carboxylic acid [3-(2-hydroxymethyl-pyrrolidin-1-yl)-propyl]-amide], the IC50 in series [2] worked out at 0.5 nM.
Regarding `O=C(Cc1ccc2c(c1)CCO2)N/N=C1\C(=O)Nc2cc(C(=O)NCCCN3CCC(O)CC3)cc(Br)c21` [Example 12, 4-Bromo-3-[(2-2,3-dihydro-benzofuran-5-yl-acetyl)-hydrazono]-2-oxo-2,3-dihydro-1H-indole-6-carboxylic acid [3-(4-hydroxy-piperidin-1-yl)-propyl]-amide], the IC50 in series [2] amounted to 2 nM.
Still for that read-out and setting: in the case of `O=C(Cc1ccc2c(c1)CCO2)N/N=C1\C(=O)Nc2cc(C(=O)NCCCN3CC[C@H](O)C3)cc(Br)c21` [Example 13, (S)-4-Bromo-3-[(2-2,3-dihydro-benzofuran-5-yl-acetyl)-hydrazono]-2-oxo-2,3-dihydro-1H-indole-6-carboxylic acid [3-(3-hydroxy-pyrrolidin-1-yl)-propyl]-amide] it was 1 nM.
On the same count and under the same terms, in the case of `CN(C)CCCNC(=O)c1cc(Br)c2c(c1)NC(=O)/C2=N\NC(=O)Cc1ccc2occc2c1` [Example 14, 3-[(2-Benzofuran-5-yl-acetyl)-hydrazono]-4-bromo-2-oxo-2,3-dihydro-1H-indole-6-carboxylic acid (3-dimethylamino-propyl)-amide] it was 1.6 nM.
On to `O=C(Cc1ccc2c(c1)CCO2)N/N=C1\C(=O)Nc2cc(C(=O)NCCCO)cc(Br)c21` [Example 15, 4-Bromo-3-[(2-2,3-dihydro-benzofuran-5-yl-acetyl)-hydrazono]-2-oxo-2,3-dihydro-1H-indole-6-carboxylic acid (3-hydroxy-propyl)-amide], for which the half-inhibitory concentration (IC50) in series [2] is 1 nM.
The same measure, in the same setting: in the case of `CN1CCN(C(=O)c2cc(Br)c3c(c2)NC(=O)/C3=N\NC(=O)Cc2ccc3occc3c2)CC1` [Example 16, Benzofuran-5-yl-acetic acid [4-bromo-6-(4-methyl-piperazine-1-carbonyl)-2-oxo-1,2-dihydro-indol-3-ylidene]-hydrazide hydrochloride] it was 65 nM.
On the same count and under the same terms, in the case of `CN1CCN(C(=O)c2cc(Br)c3c(c2)NC(=O)/C3=N\NC(=O)Cc2ccc3ocnc3c2)CC1` [Example 17, Benzooxazol-5-yl-acetic acid [4-bromo-6-(4-methyl-piperazine-1-carbonyl)-2-oxo-1,2-dihydro-indol-3-ylidene]-hydrazide] it was 656 nM; in that of `CN1CCN(C(=O)c2cc(Br)c3c(c2)NC(=O)/C3=N\NC(=O)Cc2ccc3sccc3c2)CC1` [Example 18, Benzothiophen-5-yl-acetic acid [4-bromo-6-(4-methyl-piperazine-1-carbonyl)-2-oxo-1,2-dihydro-indol-3-ylidene]-hydrazide hydrochloride], 4700 nM; in that of `CN1CCN(C(=O)c2cc(Br)c3c(c2)NC(=O)/C3=N\NC(=O)Cc2ccc3onc(N)c3c2)CC1` [Example 19, (3-Amino-benzo[d]isoxazol-5-yl)-acetic acid [4-bromo-6-(4-methyl-piperazine-1-carbonyl)-2-oxo-1,2-dihydro-indol-3-ylidene]-hydrazide], 158 nM.

(Values after patent publication US7662824B2, “Acylhydrazones as kinase modulators” (Janssen Pharmaceutica NV, priority 2005, dated 2010).)
